No end group written: not given here.
Test system: neonatal rat ventricular cardiomyocyte
Assay: Hypoxia-reoxygenation (simulated I-R) injury in neonatal rat cardiomyocytes, LDH and cTnI release
Assay type: cell-based
Settings: 1 μM
Description: Isolation of primary neonatal rat ventricular cardiomyocyte: All materials used for cardiomyocyte isolation were of tissue culture grade. Cardiomyocyte isolation was performed by serial enzymatic digestions, as previously described (Irvine, J C et al, AJP, 2013). Cardiomyocyte were suspended in sterile DMEM, supplemented with 100 U/mL penicillin, 100 μg/mL streptomycin, and 10% FCS. The myocyte-rich cell suspension was preplated twice (45 min at 37° C.) to reduce fibroblast contamination. Cardiomycte was then plated onto 12-well plates at 0.5×10^6 for lactate dehydrogenase (LDH) assay in the presence of 1% 5-bromo-2′-deoxyuridine (BrdU, to limit proliferation of any remaining fibroblasts).
Simulated ischaemic-reperfusion in neonatal rat cardiomyocytes: The medium for cardiomyocytes was changed to serum-free low glucose DMEM after at least 48 h after isolation. […] Agonists were dissolved in DMEM or Krebs' buffer and were present for the full duration of hypoxia and reoxygenation. At the end of 48 h reoxygenation, culture supernatant aliquots was collected on ice and stored at −80° C. for assessment of cardiomyocyte injury. Samples were thawed on ice, and cell injury assessment determined via the level of LDH released into the supernatant, using the Cyto-Tox-One™ Homogeneous Membrane Integrity Assay as per manufacture's instruction (Promega Inc, Dane Country, Wis., USA). To confirm the extent of cardiomyocyte injury, levels of cTn in the supernatant were also evaluated, using a commercially available high-sensitivity rat cTnI ELISA kit (Life Diagnostic Inc, West Chester, Pa., USA) as per manufacturer's instructions.
Isolation and culture of primary rat cardiomyocytes and mouse cardiac fibroblasts: All materials used for cell isolation were of tissue culture grade. Isolation of primary neonatal rat cardiac cardiomyocytes (NRCM) and adult mouse cardiac fibroblasts (AMCF) was performed by serial enzymatic digestion, as previously described (Irvine et al 2012 & Irvine et al. 3) NRCM were plated onto either 12-well tissue culture plates (for simulated ischemia-reperfusion, via hypoxia-reoxygenation, H-R) or 60 mm tissue culture dishes (for gene expression) at a density of 1.3×10^5 cells/cm^2, in the presence of 1% 5-bromo-2′-deoxyuridine. AMCF (passage #3) were seeded onto 60 mm tissue culture dishes at 9.5×10^4 cells/cm^2 and allowed to grow to 80% confluence prior to study. Following 48 h in serum-free DMEM, NRCM in 12-well tissue plates were subjected to simulated ischemia, induced by replacement of culture media with sterile-filtered Kreb's buffer (118 mM NaCl, 4.8 mM KCl, 1.2 mM KH2PO4, 1.2 mM MgSO4, 25 mM NaHCO3, […], 11.0 mM glucose, 1.75 mM CaCl2) prior to incubation for 6 h at 37° C. under hypoxia (95% N2-5% CO2, using a hypoxia chamber, QNA International, Melbourne, Australia). At the end of hypoxia, Kreb's buffer was replaced with fresh, sterile-filtered Kreb's buffer, in the presence or absence of FPR agonists Cmpd17b, Cmpd43 (both 1 μM or vehicle, and NRCM were subjected to 48 h reoxygenation at 37° C. At the end of 48 h reoxygenation, NRCM supernatant was collected for assessment of cardiomyocyte injury. Cardiomyocyte release of cTnI was determined using a commercially available, high-sensitivity rat cTnI ELISA kit (Life Diagnostic Inc.) as per the manufacturer's instructions. Separate NRVM on 60 mm dishes were incubated for 48 h at 37° C. in serum-free DMEM, in the presence or absence of FPR agonists Cmpd17b, Cmpd43 (both 1 μM) or vehicle. At the end of 48 h, RNA was extracted and real-time PCR performed (as described previously (Huynh et al. 2012)), to determine the relative gene expression of rat Fprs (rFpr1, rFpr2 and rFpr3, expressed as the threshold cycle number Ct subtracted from the maximum cycle number utilized, 40).
Cardiomyocytes injury responses in vitro: Neonatal rat cardiomyocytes and adult mouse cardiofibroblasts were isolated and cultured as described (online Supplement). […]

[1] = present only during reoxygenation
[2] = present for the full duration of 6 h hypoxia and 48 h reoxygenation

Molecule	Cardiomyocyte cTnI release after hypoxia-reoxygenation [1]	Cardiomyocyte LDH release after hypoxia-reoxygenation [2]	Cardiomyocyte cTnI release after hypoxia-reoxygenation [2]	Cardiomyocyte LDH release after hypoxia-reoxygenation [1]	Cardiomyocyte cTnI release after hypoxia-reoxygenation (present only during reoxygenation, listed as Cmpd17b)
CC(C)C1C(NC(=O)Nc2ccc(Cl)cc2)C(=O)N(c2ccccc2)N1C (stereo not shown) [BIDI-002]	significantly reduced	–	–	–	–
Ac2-26: Annexin-A1 N-terminal peptide, peptide ANX-A1 mimetic (Ac-AMVSEFLKQAWFIENEEQEYVQTVK; UniProt P04083 2-26, looked up, fragment)	significantly attenuated	significantly reduced	significantly reduced	non-significant trend	–
COc1cccc(Cc2cc(C)nn(C(C)C(=O)Nc3ccc(Br)cc3)c2=O)c1 (stereo not shown) [BIDI-001, N-(4-bromophenyl)-2-[5-(3-methoxybenzyl)-3-methyl-6-oxo-6H-pyridazin-1-yl]-propionamide]	significantly reduced	–	–	–	rescued

Reference: patent US10328075B2, “Method of treatment and compounds for use therein” (Baker Heart and Diabetes Institute, priority 2015, dated 2019)
